Data: patent publication US20070249686A1, “Modulators of Crth-2 Receptor Activity for the Treatment of Prostaglandin D2 Mediated Diseases” (ASTRAZENECA AB, priority 2004, published 2007)

Molecular target: T1, CRTh2 (Homo sapiens, UniProt Q9Y5Y4)
T1 construct: expressed in transfected cells; host or cells: HEK cells (membrane preparation)
T1 sequence (Q9Y5Y4 1-395): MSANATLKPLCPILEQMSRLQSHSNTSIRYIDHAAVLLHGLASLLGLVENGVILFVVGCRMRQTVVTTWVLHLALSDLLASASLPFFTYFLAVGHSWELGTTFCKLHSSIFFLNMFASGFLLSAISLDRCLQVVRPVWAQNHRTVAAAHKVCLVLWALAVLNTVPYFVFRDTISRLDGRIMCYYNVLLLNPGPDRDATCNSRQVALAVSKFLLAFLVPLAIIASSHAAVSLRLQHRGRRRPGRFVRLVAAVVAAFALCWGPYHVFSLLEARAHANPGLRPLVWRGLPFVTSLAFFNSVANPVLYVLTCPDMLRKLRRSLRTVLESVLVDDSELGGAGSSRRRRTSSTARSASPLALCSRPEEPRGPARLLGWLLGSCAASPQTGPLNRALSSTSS
Assay: Ligand binding assay: [3H]PGD2 binding to membranes of HEK cells expressing rhCRTh2/Gα16 (SPA beads)
Settings: [3H]PGD2 displacement, HEK cell membranes containing CRTh2, SPA, 2 hours at room temperature
Description: [hu 3H]PGD2 was purchased from Perkin Elmer Life Sciences with a specific activity of 100-210 Ci/mmol. All other chemicals were of analytical grade.
HEK cells expressing rhCRTh2/Gα16 were routinely maintained in DMEM containing 10% Foetal Bovine Serum (HyClone), 1 mg/ml geneticin, 2 mM L-glutamine and 1% non-essential amino acids. For the preparation of membranes, the adherent transfected HEKcells were grown to confluence in two layer tissue culture factories (Fisher, catalogue number TKT-170-070E). Maximal levels of receptor expression were induced by addition of […] sodium butyrate for the last 18 hours of culture. The adherent cells were washed once with phosphate buffered saline (PBS, 50 ml per cell factory) and detached by the addition of 50 ml per cell factory of ice-cold membrane homogenisation buffer [20 mM HEPES (pH 7.4), 0.1 mM dithiothreitol, 1 mM EDTA, 0.1 mM phenyl methyl sulphonyl fluoride and 100 μg/ml bacitracin]. […] The final pellet was re-suspended in 4 ml of membrane homogenisation buffer per cell factory used and the protein content determined. […]
All assays were performed in Corning clear bottomed, white 96-well NBS plates (Fisher). […] (The optimum coating concentrations were determined for each batch of membranes) The beads were pelleted by centrifugation (800×g for 7minutes at 4° C.), washed once with assay buffer (50 mM HEPES pH 7.4 containing 5 mM magnesium chloride) and finally re-suspended in assay buffer at a bead concentration of 10 mg/ml.
Each assay contained 20 μl of 6.25 nM [^3H]PGD2, 20 μl membrane saturated SPA beads both in assay buffer and 10 μl of compound solution or 13,14-dihydro-15-keto prostaglandin D2 (DK-PGD2, for determination of non-specific binding, Cayman chemical company). […] The assay plate was incubated at room temperature for 2 hours and counted on a Wallac Microbeta liquid scintillation counter (1 minute per well).

IC50 [nM] | Structure (SMILES)
10 | Cc1nn(S(=O)(=O)N(C)C)cc1-c1cc(C(F)(F)F)ccc1O[C@@H](C)C(=O)O [Example 22, (2S)-2-[2-{1-[(Dimethylamino)sulfonyl]-3-methyl-1H-pyrazol-4-yl}-4-(trifluoromethyl)phenoxy]propanoic acid]
63.1 | CCS(=O)(=O)c1ccc(-c2nc(C)ccc2OCC(=O)O)c(C)c1 [Example 11, ({2-[4-(Ethylsulfonyl)-2-methylphenyl]-6-methylpyridin-3-yl}oxy)acetic acid]
39.8 | CS(=O)(=O)c1ccc(-c2cc(C(F)(F)F)ccc2CCC(=O)O)cc1C(F)(F)F [Example 31, 3-[4′-(Methylsulfonyl)-3′,5-bis(trifluoromethyl)biphenyl-2-yl]propanoic acid]
